Experiments:
[1] = test system: TNF-alpha mRNA; experiment: TNF-alpha mRNA expression in LPS stimulated PBMC (qRT-PCR); assay type: cell-based, human; settings: LPS stimulated PBMC from PAV/PAV subjects, transient
Experimental: (§1) Figure 5 In bacterial LPS stimulated PBMC, AITC triggers MAPK activation and TNF-α inhibition in dependence of the TAS2R38 genotype. PBMC were exposed to AITC or 0.01% DMSO (SC) together with 100 pg/mL LPS. (A) Representative immunoblots are given. Densitometric analysis was done to quantify the immunoblots using Quantity One software (Bio-Rad, Munich, Germany) and normalized against β-actin, which was used as loading control. (B, C) Cytokine secretion at 3 and 24 h was analyzed using ELISA kits. (D) Time kinetic of TNF-α mRNA expression. Results are means + SD and given as fold of the solvent control. Results were calculated relative to the corresponding solvent control (SC, 0.01% DMSO). Significance of difference was determined compared to the respective SC by one-way ANOVA, *p < 0.05, **p < 0.01.

[2] = test system: IL-1β; experiment: IL-1β release of LPS stimulated PBMC (ELISA); assay type: cell-based, human; settings: LPS activated PBMC
Experimental: PBMC (1x10^6/mL) cultured in RPMI 1640 medium supplemented with 10% heat-inactivated fetal calf serum, 2 mM L-glutamine, 100 U/ml penicillin/streptomycin were stimulated with 0.5 ng/ml CD3/CD28 MAbs and exposed to the test compounds. After 24 h, supernatants were collected and stored at -80°C until analysis using the human MACSplex cytokine 12-kit (Miltenyi Biotec GmbH, Bergisch Gladbach, Germany) according to manufacturer’s protocol to quantify cytokine secretion. Supernatants were also used for photometric quantification by the human TNF-alpha or IL-1β ELISA Ready-Set-Go kit from eBIoscience (Frankfurt, Germany) according to the manufacturer’s instructions.
as §1, with “(D) Time kinetic of TNF-α mRNA expression. Results are means + SD and given as fold of the solvent control.” left out

[3] = test system: TAS2R38 receptor; experiment: Calcium flux assay in human PBMC (flow cytometry, Fluo-4 AM); settings: PAV/AVI
[4] = test system: E. coli K-12; experiment: Bactericidal activity of PBMC co-incubated with E. coli K-12 (DiBAC4(3) depolarization); assay type: cell-based, Escherichia coli; settings: MOI 0.5
Experimental: E. coli K-12 bacteria were grown in Luria-Bertani medium at 37°C to mid-logarithmic-phase as determined by OD600. Next, PBMC (1x10^6/mL) were incubated with E. coli K-12 at MOI 0.5 in RPMI 1640 medium supplemented with 2% heat-inactivated fetal calf serum and exposed to the test compounds for 120 min in a humidify condition (5% CO2, 37°C). Thereafter, 1 µg/mL of the membrane potential dye DiBAC4(3) was added and incubated for 10 min at room temperature in the dark. Subsequently, the cells were washed once with PBS and centrifuged at 4500 x g for 10 min. The percentage of depolarized bacteria was determined using a FACSCalibur™ flow cytometer with an excitation wavelength of 493 nm.
Figure 3 AITC stimulates NO production and exerts bactericidal activity in dependence of the TAS2R38 haplotype. […] Fluorescence signals (ex 488 nm, em 530± 30 nm) were monitored using a FACSCalibur™. The median fluorescence intensity (MFI) of each sample was calculated using FlowJo software (Ashland, Oregon, USA). […] Cell membrane potential depolarization was determined by staining bacteria with 1 µg/ml DiBAC4(3) for 10 min, in the dark at room temperature. […] Significance of difference was calculated relative to the respective control by one-way ANOVA. […]

[5] = test system: TAS2R38-PAV receptor; set-up: method as in PMID 20022913; settings: cited from earlier work
[6] = test system: p-ERK1/2, p-p38, p-Akt; experiment: Immunoblotting of MAPK and AKT phosphorylation in PBMC; assay type: cell-based, human
Experimental: Proteins of interest were analyzed by immunoblotting as described before ([36]). Densitometric analysis was done to quantify the immunoblots using Quantity One software (Bio-Rad, Munich, Germany) and normalized against β-actin.
Figure 4 AITC mediates MAPK down-stream signaling in dependence of the TAS2R38 haplotype. (A, B) PBMC were treated with test compounds for the indicated time points and pellets were collected for protein expression analysis. Representative immunoblots are given. Densitometric analysis was done to quantify the immunoblots using Quantity One software (Bio-Rad, Munich, Germany) and normalized against β-actin, which was used as loading control. The graphs show phosphorylated ERK1/2, p-38 or Akt, protein levels relative to control as quantified by pixel densitometry. Bars are mean + SD; *p < 0.05, **p < 0.01 (n ≥ 2). Significance of difference was calculated relative to the corresponding solvent control determined by one-way ANOVA (SC, 0.01% DMSO).
as §1

## C=CCN=C=S [AITC, allyl isothiocyanate]
[1]
  inhibition of TNF-alpha mRNA expression: 50%
[2]
  release of IL-1β: suppressed in both AVI/AVI and PAV/PAV groups
[3]; lymphocytes, 100 µM AITC
  calcium influx: 21%
[3]; monocytes, 10 µM AITC
  calcium flux (statistically significant): 18%
[4]; AVI/AVI cells
  bactericidal activity: no effect
[4]; PAV/PAV cells
  bactericidal activity: increased bactericidal activity
[5]; HEK293T-Gα16gust44 cells transiently transfected
  activation of TAS2R38 taster variant among 25 TAS2Rs: selectively triggered the taster variant
[5]
  activation of the TAS2R38-PAV receptor: activated
[5]; heterologous expressed TAS2R38-PAV, in vitro
  threshold concentration: 10 µM
[6]; 5 min, 100 pg/mL LPS and AITC, PAV/PAV subjects
  p-ERK, p-p38 and p-Akt phosphorylation: upregulation
[6]; PBMC, PAV/PAV group, in contrast to AVI/AVI
  p-ERK1/2 and p-p38 phosphorylation: quick activation (5 min. AITC exposure), followed by dephosphorylation
[6]; PBMC, in dependence of the TAS2R38 genotype
  p-Akt phosphorylation: same activation/inactivation pattern

From PMC8103899, “Allyl Isothiocyanate: A TAS2R38 Receptor-Dependent Immune Modulator at the Interface Between Personalized Medicine and Nutrition” (Frontiers in Immunology, 2021)
